Reference: patent US20050014811A1, “Substituted benzimidazole compounds and their use for the treatment of cancer” (Aventis Pharma S.A., priority 2001, published 2005)
One block for each compound: values may come before it.

How the values were obtained:
[1] = target: CDK4/CyclinD1 (Homo sapiens, UniProt P11802); experiment: CDK4/CyclinD1 Flashplate assay, 96-well format, biotinylated-Rb peptide substrate; format: biochemical
Method in brief: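 Biotinylated Rb peptide bound to streptavidin Flashplate; CDK4/CyclinD1 (70 ng/well) preincubated 30 min on ice with compound at 10, 3, 1, 0.3 and 0.1 μM final. Reaction with 1 μM cold ATP plus 33P-ATP for 45 min at RT; incorporated 33P counted, duplicates.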

[2] = target: CDK2/CyclinE (Homo sapiens, UniProt P24941); experiment: CDK2/CyclinE Flashplate assay, 96-well format, biotinylated-Rb peptide substrate; format: biochemical
Procedure: This is a CDK2/CyclinE kinase assay in a 96-well Streptavidin-coated Flashplate with a biotinylated-Rb peptide substrate.
Each point is tested in duplicate
Biotinylated-Rb: Biotin-[…]-OH
• 1. Prepare substrate: 1 mg/ml solution made fresh in PBS. • 2. Add 4 μg per well to the Flashplate. • 3. Incubate for 2 hours at RT. • 4. From 10 mM inhibitor stocks in DMSO, make 1 mM, 300 μM, 100 μM, 30 μM and 10 μM series of dilution in DMSO. • 5. Was the Flashplate 3 times with 300 μl PBS to remove unbound peptide substrate. • 6. Add the CDK2/CyclinE kinase: 200 ng per well, in a volume of 90 μl in kinase buffer (except for “no enzyme” control wells). • 7. Add 1 μl per well of inhibitor to test 10 μM, 3 μM, 1 μM, 0.3 μM and 0.1 μM in final concentration per 100 μl in each well. • 8. Shake gently the Flashplate 1 minute. • 9. Incubate 30 minutes on wet ice. • 10. Initiate the reaction with 10 μl kinase buffer containing 1 μM final cold ATP and 1 μCi final ^33P-ATP per well. • 11. Shake gently the Flashplate 1 minute. • 12. Incubate 45 minutes at RT (no shaking). • 13. Wash the Flashplate 3 times with 300 μl PBS
14. Count to detect the incorporation of ^33P-ATP by the kinase to the Rb phosphorylation site.

Chain of CDK4/CyclinD1 (P11802 whole entry, species assumed): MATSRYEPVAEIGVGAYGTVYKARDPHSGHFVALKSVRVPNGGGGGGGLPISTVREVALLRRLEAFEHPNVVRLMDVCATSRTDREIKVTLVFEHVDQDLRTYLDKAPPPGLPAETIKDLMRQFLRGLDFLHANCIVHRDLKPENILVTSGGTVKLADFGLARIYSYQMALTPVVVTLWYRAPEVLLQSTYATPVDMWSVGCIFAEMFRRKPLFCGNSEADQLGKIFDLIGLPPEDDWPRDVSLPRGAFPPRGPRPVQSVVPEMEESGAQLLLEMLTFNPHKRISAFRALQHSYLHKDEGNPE
Chain of CDK4/CyclinD1 (P24385 whole entry partner, species assumed): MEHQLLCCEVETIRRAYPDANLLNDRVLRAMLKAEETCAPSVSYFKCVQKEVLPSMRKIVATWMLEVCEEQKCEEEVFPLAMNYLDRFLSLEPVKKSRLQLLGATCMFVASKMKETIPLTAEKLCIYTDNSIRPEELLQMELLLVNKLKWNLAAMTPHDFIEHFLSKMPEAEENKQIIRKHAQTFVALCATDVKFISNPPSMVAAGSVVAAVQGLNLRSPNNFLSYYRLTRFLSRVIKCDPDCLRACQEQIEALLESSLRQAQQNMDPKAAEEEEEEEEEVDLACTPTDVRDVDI

inhibition at 10 µM [1]: 88%
IC50 [2]: 500 nM
Compound: O=C(Nc1ccc(F)cc1)Nc1nc2cc(OS(=O)(=O)c3ccc(-n4ccnc4)cc3)ccc2[nH]1 [Example 57-f, 4-Imidazol-1-yl-benzenesulfonic acid 2-[3-(4-fluoro-phenyl)-ureido]-1H-benzoimidazol-5-yl ester]

inhibition at 10 µM [1]: 52%
IC50 [2]: 600 nM
Compound: O=C(NCc1ccccc1Cl)Nc1nc2cc(OS(=O)(=O)c3ccc(-n4ccnc4)cc3)ccc2[nH]1 [Example 57-g, 4-Imidazol-1-yl-benzenesulfonic acid 2-[3-(2-chloro-benzyl)-ureido]-1H-benzoimidazol-5-yl ester]

IC50 [1]: 4400 nM
IC50 [2]: 100 nM
Compound: O=C(NCc1ccccc1F)Nc1nc2cc(OS(=O)(=O)c3ccc(-n4ccnc4)cc3)ccc2[nH]1 [Example 57-h, 4-Imidazol-1-yl-benzenesulfonic acid 2-[3-(2-fluoro-benzyl)-ureido]-1H-benzoimidazol-5-yl ester]

inhibition at 10 µM [1]: 27%
IC50 [2]: 5200 nM
Compound: O=C(Nc1nc2cc(OS(=O)(=O)c3ccc(-n4ccnc4)cc3)ccc2[nH]1)N1CCC1 [Example 57-i, 4-Imidazol-1-yl-benzenesulfonic acid 2-[(azetidine-1-carbonyl)-amino]-1H-benzoimidazol-5-yl ester]

inhibition at 10 µM [1]: 49%
IC50 [2]: 600 nM
Compound: CN1CCN(CCCNC(=O)Nc2nc3cc(OS(=O)(=O)c4ccc(-n5ccnc5)cc4)ccc3[nH]2)CC1 [Example 57-k, 4-Imidazol-1-yl-benzenesulfonic acid 2-{3-[3-(4-methyl-piperazin-1-yl)-propyl]-ureido}-1H-benzoimidazol-5-yl ester]

IC50 [1]: 1000 nM
IC50 [2]: 70 nM
Compound: O=C(NCc1ccccc1)Nc1nc2cc(OS(=O)(=O)c3ccc(-n4ccnc4)cc3)ccc2[nH]1 [Example 57-l, 4-Imidazol-1-yl-benzenesulfonic acid 2-(3-benzyl-ureido)-1H-benzoimidazol-5-yl ester]

inhibition at 10 µM [1]: 96%
IC50 [2]: 380 nM
Compound: O=C(Nc1ccccc1)Nc1nc2cc(OS(=O)(=O)c3ccc(NC4CCCC4)cc3)ccc2[nH]1 [Example 58-a, 4-Cyclopentylamino-benzenesulfonic acid 2-(3-phenyl-ureido)-1H-benzoimidazol-5-yl ester]

IC50 [1]: 220 nM
IC50 [2]: 2 nM
Compound: O=C(NCCCCO)Nc1nc2cc(OS(=O)(=O)c3ccc(NC4CCCC4)cc3)ccc2[nH]1 [Example 58-ab, 4-Cyclopentylamino-benzenesulfonic acid 2-[3-(4-hydroxy-butyl)-ureido]-1H-benzoimidazol-5-yl ester]

IC50 [1]: 130 nM
IC50 [2]: 16 nM
Compound: NC(=O)CCNC(=O)Nc1nc2cc(OS(=O)(=O)c3ccc(NC4CCCC4)cc3)ccc2[nH]1 [Example 58-ad, 4-Cyclopentylamino-benzenesulfonic acid 2-[3-(2-carbamoyl-ethyl)-ureido]-1H-benzoimidazol-5-yl ester]

The next lines start with the compound.

Compound: O=C(NCCNCCO)Nc1nc2cc(OS(=O)(=O)c3ccc(NC4CCCC4)cc3)ccc2[nH]1 [Example 58-aa, 4-Cyclopentylamino-benzenesulfonic acid 2-{3-[2-(2-hydroxy-ethylamino)-ethyl]-ureido}-1H-benzoimidazol-5-yl ester]
IC50 [1]: 340 nM
IC50 [2]: 100 nM

Compound: O=C(NCCCN1CCCC1=O)Nc1nc2cc(OS(=O)(=O)c3ccc(NC4CCCC4)cc3)ccc2[nH]1 [Example 58-ac, 4-Cyclopentylamino-benzenesulfonic acid 2-{3-[3-(2-oxo-pyrrolidin-1-yl)-propyl]-ureido}-1H-benzoimidazol-5-yl ester]
IC50 [1]: 170 nM
IC50 [2]: 13 nM

Compound: O=C(NCCOCCO)Nc1nc2cc(OS(=O)(=O)c3ccc(NC4CCCC4)cc3)ccc2[nH]1 [Example 58-af, 4-Cyclopentylamino-benzenesulfonic acid 2-{3-[2-(2-hydroxy-ethoxy)-ethyl]-ureido}-1H-benzoimidazol-5-yl ester]
IC50 [1]: 210 nM
IC50 [2]: 180 nM

Compound: O=C(NCCCN1CCCC1)Nc1nc2cc(OS(=O)(=O)c3ccc(NC4CCCC4)cc3)ccc2[nH]1 [Example 58-ag, 4-Cyclopentylamino-benzenesulfonic acid 2-[3-(3-pyrrolidin-1-yl-propyl)-ureido]-1H-benzoimidazol-5-yl ester]
IC50 [1]: 390 nM
IC50 [2]: 40 nM

Compound: CCN1CCCC1CNC(=O)Nc1nc2cc(OS(=O)(=O)c3ccc(NC4CCCC4)cc3)ccc2[nH]1 (centres unmarked) [Example 58-ah, 4-Cyclopentylamino-benzenesulfonic acid 2-[3-(1-ethyl-pyrrolidin-2-ylmethyl)-ureido]-1H-benzoimidazol-5-yl ester]
IC50 [1]: 330 nM
IC50 [2]: 30 nM

Compound: O=C(NCCN1CCCC1)Nc1nc2cc(OS(=O)(=O)c3ccc(NC4CCCC4)cc3)ccc2[nH]1 [Example 58-ai, 4-Cyclopentylamino-benzenesulfonic acid 2-[3-(2-pyrrolidin-1-yl-ethyl)-ureido]-1H-benzoimidazol-5-yl ester]
IC50 [1]: 330 nM
IC50 [2]: 150 nM

Compound: O=C(NCCN1CCCCC1)Nc1nc2cc(OS(=O)(=O)c3ccc(NC4CCCC4)cc3)ccc2[nH]1 [Example 58-aj, 4-Cyclopentylamino-benzenesulfonic acid 2-[3-(2-piperidin-1-yl-ethyl)-ureido]-1H-benzoimidazol-5-yl ester]
IC50 [1]: 380 nM
IC50 [2]: 370 nM

Compound: CC(CO)NC(=O)Nc1nc2cc(OS(=O)(=O)c3ccc(NC4CCCC4)cc3)ccc2[nH]1 (centres unmarked) [Example 58-ak, 4-Cyclopentylamino-benzenesulfonic acid 2-[3-(2-hydroxy-1-methyl-ethyl)-ureido]-1H-benzoimidazol-5-yl ester]
IC50 [1]: 180 nM
IC50 [2]: 100 nM

Compound: CC(C)NCCNC(=O)Nc1nc2cc(OS(=O)(=O)c3ccc(NC4CCCC4)cc3)ccc2[nH]1 [Example 58-al, 4-Cyclopentylamino-benzenesulfonic acid 2-[3-(2-isopropylamino-ethyl)-ureido]-1H-benzoimidazol-5-yl ester]
IC50 [1]: 250 nM
IC50 [2]: 150 nM

Compound: CCN(CC)CCNC(=O)Nc1nc2cc(OS(=O)(=O)c3ccc(NC4CCCC4)cc3)ccc2[nH]1 [Example 58-am, 4-Cyclopentylamino-benzenesulfonic acid 2-[3-(2-diethylamino-ethyl)-ureido]-1H-benzoimidazol-5-yl ester]
IC50 [1]: 240 nM
IC50 [2]: 80 nM

Compound: COC(=O)[C@H](CO)NC(=O)Nc1nc2cc(OS(=O)(=O)c3ccc(NC4CCCC4)cc3)ccc2[nH]1 [Example 58-an, 2-{3-[5-(4-Cyclopentylamino-benzenesulfonyloxy)-1H-benzoimidazol-2-yl]-ureido}-3S-hydroxy-propionic acid methyl ester]
IC50 [1]: 200 nM
IC50 [2]: 100 nM

Compound: O=C(Nc1nc2cc(OS(=O)(=O)c3ccc(NC4CCCC4)cc3)ccc2[nH]1)NC1CCCCC1 [Example 58-b, 4-Cyclopentylamino-benzenesulfonic acid 2-(3-cyclohexyl-ureido)-1H-benzoimidazol-5-yl ester]
inhibition at 10 µM [1]: 70%
IC50 [2]: 900 nM

Compound: O=C(Nc1nc2cc(OS(=O)(=O)c3ccc(NC4CCCC4)cc3)ccc2[nH]1)NC1CCCC1 [Example 58-c, 4-Cyclopentylamino-benzenesulfonic acid 2-(3-cyclopentyl-ureido)-1H-benzoimidazol-5-yl ester]
inhibition at 10 µM [1]: 60%
IC50 [2]: 600 nM
